The source of these data is patent US12404272B2, “Process for making a PD-1/PD-L1 inhibitor and salts and crystalline forms thereof” (Incyte Corporation, priority 2020, dated 2025).

What all share (format): physicochemical
The nature of data set [1]: Static storage at elevated temperature and relative humidity, re-analysis by XRPD. The procedure: In some examples below, X-Ray Powder Diffraction analysis was carried out on a Bruker D8 X-ray Powder Diffractometer (XRPD) instrument using Cu Kα radiation (40 kV, 40 mA) and a θ-2θ goniometer fitted with a Ge monochromator. The incident beam passes through a 2.0 mm divergence slit followed by a 0.2 mm anti-scatter slit and knife edge. The diffracted beam passes through an 8.0 mm receiving slit with 2.5° Soller slits followed by the Lynxeye Detector. The software used for data collection and analysis was Diffrac Plus XRD Commander and Diffrac Plus EVA respectively. Samples were run under ambient conditions as flat plate specimens using powder as received. The sample was prepared on a polished, zero-background (510) silicon wafer by gently pressing onto the flat surface or packed into a cut cavity. The sample was rotated in its own plane. The general experimental procedures for XRPD were: (1) angular range: 2 to 42° 2θ; (2) step size: 0.05° 2θ; and collection time: 0.5 s/step (total collection time: 6.40 min). The extended data collection experimental procedures for XRPD were: (1) angular range: 3 to 30° 2θ; (2) step size: 0.05° 2θ; and collection time: 4 s/step (total collection time: 38.00 min).
In some examples below, X-Ray Powder Diffraction analysis was carried out on a PANalytical Empyrean X-ray Powder Diffractometer (XRPD) instrument using Cu Kα radiation (45 kV, 40 mA) in transmission geometry. A 0.5° slit, 4 mm mask and 0.04 rad Soller slits with a focusing mirror were used on the incident beam. A PIXcel^3D detector, placed on the diffracted beam, was fitted with a receiving slit and 0.04 rad Soller slits. The software used for data collection was X'Pert Data Collector using X'Pert Operator Interface. The data were analysed and presented using Diffrac Plus EVA or HighScore Plus. Samples were prepared and analysed in either a metal or Millipore 96 well-plate in transmission mode. X-ray transparent film was used between the metal sheets on the metal well-plate and powders (approximately 1-2 mg) were used as received. […]

Data set [2] can be described thus: Gravimetric vapour sorption (GVS). The procedure: Gravimetric Vapour sorption (GVS) was carried out using a SMS DVS Intrinsic moisture sorption analyser, controlled by DVS Intrinsic Control software. The sample temperature was maintained at 25° C. by the instrument controls. The humidity was controlled by mixing streams of dry and wet nitrogen, with a total flow rate of 200 ml/min. The relative humidity was measured by a calibrated Rotronic probe (dynamic range of 1.0-100% RH), located near the sample. The weight change, (mass relaxation) of the sample as a function of % RH was constantly monitored by a microbalance (accuracy ±0.005 mg).
Typically, 5-30 mg of sample was placed in a tared mesh stainless steel basket under ambient conditions. The sample was loaded and unloaded at 40% RH and 25° C. (typical room conditions). A moisture sorption isotherm was performed as outlined below (2 scans per complete cycle). The standard isotherm was performed at 25° C. at 10% RH intervals over a 0-90% RH range. Typically, a double cycle (4 scans) was carried out.
The sample was recovered after completion of the isotherm and re-analysed by XRPD.

Data set [3] can be described thus: Maturation in solvents (20 vol), dissolution observed. The note with it: matured RT-50° C. for 3 days. The protocol:
The methanesulfonic acid salt (20 mg) was treated with solvent (20 vol) and matured (RT −50° C., 4 h) for 3 days. Samples were then analyzed by XRPD. Attempts in improve the crystallinity of the scaled up methanesulfonic acid salt was undertaken by subjecting the material to maturation for 72 h in a variety of solvents. A slight improvement in crystallinity was observed from maturing in 2-propanol, ethyl acetate, and tert-butyl methyl ether.

Where a name gives a salt, the structure may show the parent alone.

Consider `Cc1c(Nc2nc(C(F)F)nc3cc(CN4CC[C@@H](O)C4)cnc23)cccc1-c1cccc(-c2nc3cc(CN4CCC(C(=O)O)CC4)cc(C#N)c3o2)c1C` [(R)-1-((7-cyano-2-(3′-((2-(difluoromethyl)-7-((3-hydroxypyrrolidin-1-yl)methyl)pyrido[3,2-d]pyrimidin-4-yl)amino)-2,2′-dimethyl-[1,1′-biphenyl]-3-yl)benzo[d]oxazol-5-yl)methyl)piperidine-4-carboxylic acid], for which the “XRPD analysis following static storage” value in data set [1] (25° C./97% RH for 5 days) is on record as “remained unchanged, however a loss in crystallinity was observed”; in data set [1] (40° C./75% RH for 5 days), “remained unchanged, however a loss in crystallinity was observed”. Besides, in data set [2] (GVS, 0-90% RH), the hygroscopicity result is “very hygroscopic”. For the same compound, the “XRPD analysis following the GVS experiment” value in data set [2] (after GVS isotherm) was “remained unchanged”. In data set [2] (between 0-90% RH, 25° C.), this compound yielded a weight uptake of 19.5 % w/w.
For `Cc1c(Nc2nc(C(F)F)nc3cc(CN4CC[C@@H](O)C4)cnc23)cccc1-c1cccc(-c2nc3cc(CN4CCC(C(=O)O)CC4)cc(C#N)c3o2)c1C` [Free form Form I, (R)-1-((7-cyano-2-(3′-((2-(difluoromethyl)-7-((3-hydroxypyrrolidin-1-yl)methyl)pyrido[3,2-d]pyrimidin-4-yl)amino)-2,2′-dimethyl-[1,1′-biphenyl]-3-yl)benzo[d]oxazol-5-yl)methyl)piperidine-4-carboxylic acid], in data set [1] (7 days at elevated temperature and relative humidity conditions), the “XRPD following static storage” value is “remained unchanged”.
As for `Cc1c(Nc2nc(C(F)F)nc3cc(CN4CC[C@@H](O)C4)cnc23)cccc1-c1cccc(-c2nc3cc(CN4CCC(C(=O)O)CC4)cc(C#N)c3o2)c1C` [methanesulfonic acid salt, (R)-1-((7-cyano-2-(3′-((2-(difluoromethyl)-7-((3-hydroxypyrrolidin-1-yl)methyl)pyrido[3,2-d]pyrimidin-4-yl)amino)-2,2′-dimethyl-[1,1′-biphenyl]-3-yl)benzo[d]oxazol-5-yl)methyl)piperidine-4-carboxylic acid], the dissolution in solvent result in data set [3] (ethanol) and in data set [3] (water) was “complete dissolution” each time.
